Measurements: US9738634B2, “Heterocyclic amide compound and herbicide” (SYNGENTA PARTICIPATIONS AG, priority 2013, dated 2017)

What was measured:
Type in all cases: in vivo
[1] = test system: Indian mallow; assay: Test Example 3: weedkilling efficacy through soil treatment; K: Indian mallow; conditions: soil treatment, treatment dosage 320 g/ha
Summary of the method: (§1)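 Crop and weed responses were judged three weeks after a uniform surface spray of the water-diluted emulsion at the given g/ha rate. Seeds sat beneath about 1.5 cm of sterilized diluvial soil, and boxes stood in a greenhouse at 25 to 30° C.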

[2] = test system: barnyard grass; assay: Test Example 1: weedkilling efficacy, preemergent weed treatment in the submerged state; A: barnyard grass; conditions: treatment dosage 320 g/ha
Summary of the method: (§2)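 Pots of alluvial soil were flooded to a 4 cm depth. Mixed weed seeds were sown and 2.5 leaf-stage rice seedlings transplanted. On sowing day, water-diluted emulsion was applied to the water surface (dose in g/ha). After 3 weeks at 25–30 °C, effects were rated.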

[3] = test system: bulrush; assay: Test Example 2: weedkilling efficacy, growth period weed treatment in the submerged state; B: bulrush; conditions: treatment dosage 320 g/ha
Summary of the method: (§3)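 Weeds treated at the 1-2 leaf stage by application of diluted emulsion onto floodwater (4 cm depth, alluvial soil) at specified g/ha. Grown in greenhouse at 25 to 30° C; herbicidal effect rated three weeks after treatment.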

[4] = test system: barnyard grass; assay: Test Example 3: weedkilling efficacy through soil treatment; F: barnyard grass; conditions: soil treatment, treatment dosage 320 g/ha
Summary of the method: as §1

[5] = test system: common wind-grass; assay: Test Example 3: weedkilling efficacy through soil treatment; J: common wind-grass; conditions: soil treatment, treatment dosage 320 g/ha
Summary of the method: as §1

[6] = test system: rapeseed; assay: Test Example 3: soil treatment, effect on crop; g: rapeseed; conditions: soil treatment, treatment dosage 320 g/ha
Summary of the method: as §1

[7] = test system: wheat; assay: Test Example 3: soil treatment, effect on crop; e: wheat; conditions: soil treatment, treatment dosage 320 g/ha
Summary of the method: as §1

[8] = test system: wild oat; assay: Test Example 3: weedkilling efficacy through soil treatment; G: wild oat; conditions: soil treatment, treatment dosage 320 g/ha
Summary of the method: as §1

[9] = test system: catchweed; assay: Test Example 3: weedkilling efficacy through soil treatment; O: catchweed; conditions: soil treatment, treatment dosage 320 g/ha
Summary of the method: as §1

[10] = test system: birds-eye speedwell; assay: Test Example 3: weedkilling efficacy through soil treatment; p: birds-eye speedwell; conditions: soil treatment, treatment dosage 320 g/ha
Summary of the method: as §1

[11] = test system: crabgrass; assay: Test Example 3: weedkilling efficacy through soil treatment; D: crabgrass; conditions: soil treatment, treatment dosage 320 g/ha
Summary of the method: as §1

[12] = test system: oval-leafed pondweed; assay: Test Example 1: weedkilling efficacy, preemergent weed treatment in the submerged state; C: oval-leafed pondweed; conditions: treatment dosage 320 g/ha
Summary of the method: as §2

[13] = test system: bulrush; assay: Test Example 1: weedkilling efficacy, preemergent weed treatment in the submerged state; B: bulrush; conditions: treatment dosage 320 g/ha
Summary of the method: as §2

[14] = test system: transplanted rice; assay: Test Example 1: preemergent weed treatment in the submerged state, effect on crop; a: transplanted rice; conditions: treatment dosage 320 g/ha
Summary of the method: as §2

[15] = test system: redroot pigweed; assay: Test Example 3: weedkilling efficacy through soil treatment; L: redroot pigweed; conditions: soil treatment, treatment dosage 320 g/ha
Summary of the method: as §1

[16] = test system: Italian ryegrass; assay: Test Example 3: weedkilling efficacy through soil treatment; I: Italian ryegrass; conditions: soil treatment, treatment dosage 320 g/ha
Summary of the method: as §1

[17] = test system: barnyard grass; assay: Test Example 2: weedkilling efficacy, growth period weed treatment in the submerged state; A: barnyard grass; conditions: treatment dosage 320 g/ha
Summary of the method: as §3

[18] = test system: fig-leafed goosefoot; assay: Test Example 3: weedkilling efficacy through soil treatment; M: fig-leafed goosefoot; conditions: soil treatment, treatment dosage 320 g/ha
Summary of the method: as §1

[19] = test system: green foxtail; assay: Test Example 3: weedkilling efficacy through soil treatment; E: green foxtail; conditions: soil treatment, treatment dosage 320 g/ha
Summary of the method: as §1

[20] = test system: black-grass; assay: Test Example 3: weedkilling efficacy through soil treatment; H: black-grass; conditions: soil treatment, treatment dosage 320 g/ha
Summary of the method: as §1

[21] = test system: beet; assay: Test Example 3: soil treatment, effect on crop; f: beet; conditions: soil treatment, treatment dosage 320 g/ha
Summary of the method: as §1

[22] = test system: soybean; assay: Test Example 3: soil treatment, effect on crop; d: soybean; conditions: soil treatment, treatment dosage 320 g/ha
Summary of the method: as §1

[23] = test system: corn; assay: Test Example 3: soil treatment, effect on crop; c: corn; conditions: soil treatment, treatment dosage 320 g/ha
Summary of the method: as §1

[24] = test system: directly sown rice; assay: Test Example 3: soil treatment, effect on crop; b: directly sown rice; conditions: soil treatment, treatment dosage 320 g/ha
Summary of the method: as §1

[25] = test system: oval-leafed pondweed; assay: Test Example 2: weedkilling efficacy, growth period weed treatment in the submerged state; C: oval-leafed pondweed; conditions: treatment dosage 320 g/ha
Summary of the method: as §3

[26] = test system: chickweed; assay: Test Example 3: weedkilling efficacy through soil treatment; N: chickweed; conditions: soil treatment, treatment dosage 320 g/ha
Summary of the method: as §1

SMILES	K: Indian mallow, weedkilling efficacy grade [1]	A: barnyard grass, weed kill grade [2]	B (bulrush) weedkilling efficacy grade [3]	F: barnyard grass, weedkilling efficacy grade [4]	J: common wind-grass, weedkilling efficacy grade [5]	g: rapeseed, effect on crop grade [6]	e: wheat, effect on crop grade [7]	G: wild oat, weedkilling efficacy grade [8]	O: catchweed, weedkilling efficacy grade [9]	P: birds-eye speedwell, weedkilling efficacy grade [10]	D: crabgrass, weedkilling efficacy grade [11]	C: oval-leafed pondweed, weed kill grade [12]	B: bulrush, weed kill grade [13]	a: transplanted rice, effect on crop grade [14]	L: redroot pigweed, weedkilling efficacy grade [15]	I: Italian ryegrass, weedkilling efficacy grade [16]	A (barnyard grass) weedkilling efficacy grade [17]	M: fig-leafed goosefoot, weedkilling efficacy grade [18]	E: green foxtail, weedkilling efficacy grade [19]	H: black-grass, weedkilling efficacy grade [20]	further results
Cc1cc(F)nc(NC(=O)C(C)(C)N2COCN(c3ccccc3)C2=O)c1 [A-2-20]	4 (weed kill ratio 70% or more, less than 90%)	5 (weed kill ratio 90% or more, (practically complete withering))	5 (weed kill ratio 90% or more, (practically complete withering))	5 (weed kill ratio 90% or more, (practically complete withering))	5 (weed kill ratio 90% or more, (practically complete withering))	4 (weed kill ratio 70% or more, less than 90%)	3 (weed kill ratio 40% or more, less than 70%)	5 (weed kill ratio 90% or more, (practically complete withering))	5 (weed kill ratio 90% or more, (practically complete withering))	5 (weed kill ratio 90% or more, (practically complete withering))	5 (weed kill ratio 90% or more, (practically complete withering))	5 (weed kill ratio 90% or more, (practically complete withering))	5 (weed kill ratio 90% or more, (practically complete withering))	3 (weed kill ratio 40% or more, less than 70%)	4 (weed kill ratio 70% or more, less than 90%)	5 (weed kill ratio 90% or more, (practically complete withering))	5 (weed kill ratio 90% or more, (practically complete withering))	4 (weed kill ratio 70% or more, less than 90%)	5 (weed kill ratio 90% or more, (practically complete withering))	5 (weed kill ratio 90% or more, (practically complete withering))	f: beet, effect on crop grade [21]: 4 (weed kill ratio 70% or more, less than 90%); d: soybean, effect on crop grade [22]: 3 (weed kill ratio 40% or more, less than 70%); c: corn, effect on crop grade [23]: 1 (weed kill ratio 5% or more, less than 20%); b: directly sown rice, effect on crop grade [24]: 5 (weed kill ratio 90% or more, (practically complete withering)); C (oval-leafed pondweed) weedkilling efficacy grade [25]: 5 (weed kill ratio 90% or more, (practically complete withering)); N: chickweed, weedkilling efficacy grade [26]: 4 (weed kill ratio 70% or more, less than 90%)
CCc1cc(F)nc(NC(=O)C(C)(C)N2COCN(c3ccccc3)C2=O)c1 [A-2-21]	2 (weed kill ratio 20% or more, less than 40%)	5 (weed kill ratio 90% or more, (practically complete withering))	5 (weed kill ratio 90% or more, (practically complete withering))	5 (weed kill ratio 90% or more, (practically complete withering))	5 (weed kill ratio 90% or more, (practically complete withering))	4 (weed kill ratio 70% or more, less than 90%)	1 (weed kill ratio 5% or more, less than 20%)	5 (weed kill ratio 90% or more, (practically complete withering))	4 (weed kill ratio 70% or more, less than 90%)	5 (weed kill ratio 90% or more, (practically complete withering))	5 (weed kill ratio 90% or more, (practically complete withering))	5 (weed kill ratio 90% or more, (practically complete withering))	5 (weed kill ratio 90% or more, (practically complete withering))	5 (weed kill ratio 90% or more, (practically complete withering))	4 (weed kill ratio 70% or more, less than 90%)	5 (weed kill ratio 90% or more, (practically complete withering))	5 (weed kill ratio 90% or more, (practically complete withering))	5 (weed kill ratio 90% or more, (practically complete withering))	5 (weed kill ratio 90% or more, (practically complete withering))	5 (weed kill ratio 90% or more, (practically complete withering))	f: beet, effect on crop grade [21]: 0 (weed kill ratio 5% or less (practically no effect)); d: soybean, effect on crop grade [22]: 3 (weed kill ratio 40% or more, less than 70%); c: corn, effect on crop grade [23]: 0 (weed kill ratio 5% or less (practically no effect)); b: directly sown rice, effect on crop grade [24]: 5 (weed kill ratio 90% or more, (practically complete withering)); C (oval-leafed pondweed) weedkilling efficacy grade [25]: 5 (weed kill ratio 90% or more, (practically complete withering)); N: chickweed, weedkilling efficacy grade [26]: 4 (weed kill ratio 70% or more, less than 90%)
COc1cc(F)nc(NC(=O)C(C)(C)N2COCN(c3ccccc3)C2=O)c1 [A-2-23]	0 (weed kill ratio 5% or less (practically no effect))	5 (weed kill ratio 90% or more, (practically complete withering))	5 (weed kill ratio 90% or more, (practically complete withering))	5 (weed kill ratio 90% or more, (practically complete withering))	5 (weed kill ratio 90% or more, (practically complete withering))	4 (weed kill ratio 70% or more, less than 90%)	0 (weed kill ratio 5% or less (practically no effect))	4 (weed kill ratio 70% or more, less than 90%)	4 (weed kill ratio 70% or more, less than 90%)	5 (weed kill ratio 90% or more, (practically complete withering))	5 (weed kill ratio 90% or more, (practically complete withering))	5 (weed kill ratio 90% or more, (practically complete withering))	5 (weed kill ratio 90% or more, (practically complete withering))	3 (weed kill ratio 40% or more, less than 70%)	0 (weed kill ratio 5% or less (practically no effect))	5 (weed kill ratio 90% or more, (practically complete withering))	5 (weed kill ratio 90% or more, (practically complete withering))	4 (weed kill ratio 70% or more, less than 90%)	5 (weed kill ratio 90% or more, (practically complete withering))	5 (weed kill ratio 90% or more, (practically complete withering))	f: beet, effect on crop grade [21]: 3 (weed kill ratio 40% or more, less than 70%); d: soybean, effect on crop grade [22]: 0 (weed kill ratio 5% or less (practically no effect)); c: corn, effect on crop grade [23]: 0 (weed kill ratio 5% or less (practically no effect)); b: directly sown rice, effect on crop grade [24]: 5 (weed kill ratio 90% or more, (practically complete withering)); C (oval-leafed pondweed) weedkilling efficacy grade [25]: 5 (weed kill ratio 90% or more, (practically complete withering)); N: chickweed, weedkilling efficacy grade [26]: 4 (weed kill ratio 70% or more, less than 90%)
